Assay in all cases: NCI-60 cell line screen, 48 h
Test [1] concerns COLO 205 colon.
Test [2] concerns HT29 colon.
Test [3] relates to IGROV1 ovarian.
Test [4] has as its system K-562 leukemia.
Test [5] deals with LOX IMVI melanoma.
In test [6] the test system is MDA-MB-231 breast.
Test [7] deals with NCI-H226 lung.
Test [8] concerns SF-539 CNS.

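A five-concentration, 48-hour dose response in 96-well plates underlies each endpoint, interpolated linearly between surrounding concentrations. GI50 marks 50% less growth. TGI: total growth inhibition.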

With `CCOC(=O)C1CCCCN1C(=O)Cc1c[nH]c2ccccc12` (stereo not drawn), the TGI in test [1], in test [2], in test [3], in test [4], in test [5] and in test [6] was > 100 µM throughout. Besides, the TGI in test [7] and in test [8] was > 100 µM throughout.

In the case of `O=c1[nH]nc(-c2ccccc2)n1O`, the TGI in test [1], in test [2], in test [3], in test [4], in test [5] and in test [6] was > 100 µM throughout. Moreover, the TGI in test [7] and in test [8] was > 100 µM each time.

For `COc1cccc(C(=O)C#Cc2cnc(OC)nc2OC)c1`, the TGI in test [1] was 3.88 µM; in test [2], 2.67 µM; in test [3], 2.12 µM; in test [4] it was > 100 µM; in test [5], 0.25 µM; in test [6], 7.42 µM. In test [7], the TGI amounted to 2.75 µM.

`CCC1C(c2ccccc2O)c2cc3c(cc2OC1N1CCOCC1)OCO3` (stereo not drawn): the TGI in test [1] amounted to 30.9 µM; in test [2], 26.4 µM; in test [3] it was 32.3 µM; in test [4], 31.5 µM; in test [5], 30.2 µM; in test [6], 33.5 µM. Also, the TGI in test [7] turned out to be 36.3 µM; in test [8] it was 30.7 µM.

Consider `CC1(C)CC(=O)c2c(nc3c4c([nH]c(-c5ccc(Br)cc5)c24)CC(C)(C)C3)C1`, for which the TGI in test [1] was 54.2 µM; in test [2], > 100 µM; in test [4], > 100 µM; in test [5] it was > 100 µM; in test [6], > 100 µM; in test [7], > 100 µM. In addition, in test [8], the TGI was > 100 µM.

For `CC(C)(C)OC(=O)NCCCCC(N)NC(=O)c1ccccc1` (stereo not drawn), the TGI in test [1], in test [2], in test [3], in test [4], in test [5] and in test [6] was > 100 µM in each case. Besides, the TGI in test [7] and in test [8] was > 100 µM throughout.

`c1ccc(N=C2c3ccsc3C(=Nc3ccccc3)c3ccsc32)cc1`: the TGI in test [1] turned out to be 6.01 µM; in test [2], 13.7 µM; in test [3] it was 4 µM; in test [4], 10.4 µM; in test [5], 1.38 µM; in test [6], 4.5 µM. Moreover, the TGI in test [7] amounted to 11.4 µM; in test [8] it was 3.83 µM.

On to `C[N+](C)(C)c1ncnc2c1ncn2C1CCCO1` (stereo not drawn), for which the TGI in test [1], in test [2], in test [3], in test [4], in test [7] and in test [8] was > 100 µM throughout.

As to `O=c1[nH]c(Nc2nc3ccccc3[nH]2)nc(O)c1Cc1ccccc1`, the TGI in test [1], in test [2], in test [3], in test [4], in test [6] and in test [7] was > 100 µM each time. Also, the TGI in test [8] is > 100 µM.

Take `COc1ccc(NC(=O)C(=O)/C=C(\O)c2ccccc2)cc1`: the TGI in test [1] is > 10 µM; in test [2], > 10 µM; in test [3], > 10 µM; in test [4], > 10 µM; in test [5], 5.27 µM; in test [6] it was > 10 µM.

`C=CCOc1ccc(C2C(C(=O)OC)C(=O)CC(O)(c3ccccc3)C2C(=O)OC)cc1OC` (stereo not drawn): the TGI in test [1] was > 100 µM; in test [2] it was > 100 µM; in test [3], > 100 µM; in test [4], > 100 µM; in test [5], > 100 µM; in test [6], 38.2 µM. Also, the TGI in test [7] is 60.3 µM.

`COc1cc(O)c2c(=O)c(OC)c(-c3ccc(OC)c(OC)c3)oc2c1`: the TGI in test [1], in test [2], in test [3], in test [4], in test [5] and in test [6] was > 100 µM each time. The GI50 in test [2], in test [3], in test [4], in test [5] and in test [6] was > 100 µM in each case.

Consider `OC(c1cccnc1Cl)c1nc2ccccc2c2ccnc(Cl)c12` (stereo not drawn), for which the TGI in test [1], in test [2], in test [3], in test [4], in test [5] and in test [6] was > 100 µM each time. The TGI in test [8] turned out to be 12.4 µM.

Consider `COc1ccc(C(=O)/C=C/c2ccc(OCC#N)cc2)cc1`, for which the TGI in test [1] is 40.5 µM; in test [2], > 100 µM; in test [3] it was > 10 µM; in test [4] it was 96.6 µM; in test [6], 72.5 µM; in test [7], 88.8 µM. In test [8], the TGI was determined as 45.4 µM.

Turning to `Cc1cnc2c(c1C)C(=O)c1ccccc1C2=O`, the TGI in test [1] was > 100 µM; in test [2] it was > 100 µM; in test [3] it was > 100 µM; in test [4], > 100 µM; in test [6], 93.9 µM; in test [7], > 100 µM. For the same compound, the TGI in test [8] is > 100 µM.

`COC(=O)Cc1c(-c2c(CC(=O)OC)c3ccccc3n2C2OC(COC(C)=O)C(OC(C)=O)C(OC(C)=O)C2OC(C)=O)[nH]c2ccccc12` (stereo not drawn): the TGI in test [1], in test [2], in test [3] and in test [6] was > 100 µM each time.

As for `CC(C)/C(Cl)=N/OC(=O)Nc1ccc(Cl)c(Cl)c1`, the TGI in test [1] worked out at 3.39 µM; in test [2], 13 µM; in test [3] it was 26.4 µM; in test [5], 3.16 µM; in test [6] it was 30.2 µM; in test [7], 32.2 µM. Further, in test [8], the TGI is 28.9 µM.

The record behind these values is PubChem BioAssay (NCI).
